From publication PMC9867837 (Cancer letters, 2022)
Read-outs that look alike come from different tables or passages of the source.

Key:
MDA-MB-468 cells = assay: CyQuant viable cell number assay, MDA-MB-468; assay type: cell-based, human; details: read-out: IC50 viable cell numbers, MDA-MB-468
Method: (§1) CyQuant assay was performed to evaluate compounds as previously reported. Details are presented in Supplementary Information, “Methods”. […]
(§2) 1.2.6. Cell viability assays
(§3) CyQuant assay was performed to evaluate compounds as previously reported [1 -3] . Briefly, cells (5 x 10^3 per well, 100 µl) in culture in 96-well plates were treated once with 0 -10 µM concentrations of H120, H105, […]
(§4) concentration of H182 for 6 h and then treated with 0- 100 nM docetaxel or 0-20 µM cisplatin for a total of 72 h. Viable cell numbers were assessed by a CyQuant cell proliferation kit according to the manufacturer’s instructions (Thermo/Life Technologies Corp, Carlsbad, CA). Viable cell numbers were normalized to that of DMSO (control)-treated samples. […]

MDA-MB-231 cells = assay: CyQuant viable cell number assay, MDA-MB-231; assay type: cell-based, human; details: Homo sapiens, MDA-MB-231, read-out: IC50 viable cell numbers, MDA-MB-231; CyQuant, 72 h
Method: as §1, §2, §3, §4

HCC1937 cells = assay: CyQuant viable cell number assay, HCC1937; assay type: cell-based, human; details: read-out: IC50 viable cell numbers, HCC1937
Method: as §1, §2, §3, §4

Stat3 = Stat3 (Homo sapiens, UniProt P40763); assay: EMSA of constitutive Stat3 DNA-binding activity in nuclear extracts of treated breast cancer cells; assay type: cell-based; parameters: endogenous in cells; details: MDA-MB-468 and MDA-MB-231, 0–5 μM, 1 or 2 h
Chain of Stat3 (P40763 whole entry): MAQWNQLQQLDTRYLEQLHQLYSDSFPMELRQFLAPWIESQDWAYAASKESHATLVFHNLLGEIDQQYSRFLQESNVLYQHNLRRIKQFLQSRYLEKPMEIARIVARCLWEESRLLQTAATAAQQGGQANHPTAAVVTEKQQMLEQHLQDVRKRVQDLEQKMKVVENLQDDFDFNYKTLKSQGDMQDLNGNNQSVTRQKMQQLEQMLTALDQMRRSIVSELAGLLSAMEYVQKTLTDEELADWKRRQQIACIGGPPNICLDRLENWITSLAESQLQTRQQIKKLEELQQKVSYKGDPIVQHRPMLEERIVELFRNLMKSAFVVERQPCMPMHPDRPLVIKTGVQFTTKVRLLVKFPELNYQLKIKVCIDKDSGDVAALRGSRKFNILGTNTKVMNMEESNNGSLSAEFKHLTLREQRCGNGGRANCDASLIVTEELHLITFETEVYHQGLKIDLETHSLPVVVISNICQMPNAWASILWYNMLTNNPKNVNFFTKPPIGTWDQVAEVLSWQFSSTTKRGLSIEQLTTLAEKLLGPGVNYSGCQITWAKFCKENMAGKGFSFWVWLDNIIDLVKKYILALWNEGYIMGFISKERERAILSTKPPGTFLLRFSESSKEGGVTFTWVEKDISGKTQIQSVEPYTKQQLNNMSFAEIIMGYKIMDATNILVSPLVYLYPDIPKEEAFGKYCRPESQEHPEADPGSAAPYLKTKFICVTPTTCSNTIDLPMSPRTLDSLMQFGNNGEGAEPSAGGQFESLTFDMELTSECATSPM
Method: These studies were carried out as previously described using the ^32P-labeled oligonucleotide probes, hSIE (high affinity sis-inducible element from the c-fos gene, m67 variant, 5^′-[…]) that binds Stat1 and Stat3 [11, 12] and the mammary gland factor element (MGFe) from the bovine β–casein gene promoter (sense strand, 5^′-[…]) that binds Stat5 and Stat1 [11, 12]. Details are presented in Supplementary Information, “Methods”.
Nuclear extracts and whole-cell lysates were prepared, and samples of equal total protein were subjected to Stat3 DNA-binding assay/EMSA analysis using the hSIE probe, or to SDS/PAGE and Western blotting analysis for pY705Stat3, Stat3, or GAPDH [11, 12]. […] Depending on the concentration (1, 3, or 5 μM), the inhibitory effects of the azetidine compounds were observed relatively early, at 30–60 min, on both Stat3 DNA-binding activity (Fig. 4C) and Tyr phosphorylation (Fig. 4D, pY705Stat3).

[1] = target: T1, Stat1:Stat1 DNA-binding activity (Mus musculus, UniProt P42225); assay: EMSA of Stat1:Stat1 DNA-binding activity in nuclear extracts of EGF-stimulated NIH3T3/hEGFR; assay type: biochemical; details: Fig. 1C, 30 min
T1 construct: endogenous in cells; host or cells: EGF-stimulated NIH3T3/hEGFR fibroblasts (nuclear extract)
T1 sequence (P42225 2-749 limits assumed): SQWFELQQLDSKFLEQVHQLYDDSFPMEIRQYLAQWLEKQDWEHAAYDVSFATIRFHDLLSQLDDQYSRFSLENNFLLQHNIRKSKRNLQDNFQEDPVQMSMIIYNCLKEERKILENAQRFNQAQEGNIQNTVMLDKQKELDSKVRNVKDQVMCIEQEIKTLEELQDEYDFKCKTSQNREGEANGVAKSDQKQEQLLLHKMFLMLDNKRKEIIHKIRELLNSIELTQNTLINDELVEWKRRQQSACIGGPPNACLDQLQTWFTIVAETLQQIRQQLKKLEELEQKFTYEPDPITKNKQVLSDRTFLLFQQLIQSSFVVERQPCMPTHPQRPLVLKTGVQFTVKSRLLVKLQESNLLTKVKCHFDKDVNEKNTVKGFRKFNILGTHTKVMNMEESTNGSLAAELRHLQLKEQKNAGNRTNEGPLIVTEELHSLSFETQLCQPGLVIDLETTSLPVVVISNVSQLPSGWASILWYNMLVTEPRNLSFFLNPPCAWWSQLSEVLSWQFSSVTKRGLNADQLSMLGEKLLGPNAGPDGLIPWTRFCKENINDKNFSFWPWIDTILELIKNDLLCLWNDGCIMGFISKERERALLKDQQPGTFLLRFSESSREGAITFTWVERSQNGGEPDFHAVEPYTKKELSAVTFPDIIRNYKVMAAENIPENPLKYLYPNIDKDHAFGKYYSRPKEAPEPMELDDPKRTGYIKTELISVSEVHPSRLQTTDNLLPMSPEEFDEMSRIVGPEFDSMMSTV
Method: (§5) These studies were carried out as previously described using the ^32P-labeled oligonucleotide probes, hSIE (high affinity sis-inducible element from the c-fos gene, m67 variant, 5^′-[…]) that binds Stat1 and Stat3 [11, 12] and the mammary gland factor element (MGFe) from the bovine β–casein gene promoter (sense strand, 5^′-[…]) that binds Stat5 and Stat1 [11, 12]. Details are presented in Supplementary Information, “Methods”. […]
(§6) min, prior to incubation with the radiolabeled probe for 30 min at 30 °C and subjecting to EMSA analysis.
(§7) In another case, the nuclear extract was pre-incubated with the radiolabeled probe for 30 min at 30 °C prior to incubation with increasing concentration of H182 at room temperature for 30 min and subjecting to EMSA analysis. Bands corresponding to Stats DNA- binding activities were scanned and quantified using ImageJ and plotted as a percentage of control (vehicle) against the concentration of the inhibitor, from which the IC50 values were derived .

MCF-10A cells = assay: CyQuant viable cell number assay, MCF-10A; assay type: cell-based, human; details: 72 h, read-out: IC50 viable cell numbers, MCF-10A
Method: as §1, §2, §3, §4

[2] = target: Stat5:Stat5 DNA-binding activity; assay: EMSA of Stat5:Stat5 DNA-binding activity in nuclear extracts of EGF-stimulated NIH3T3/hEGFR; assay type: biochemical, mouse; details: Fig. 1C, MGFe probe, 30 min
Method: as §5, §6, §7

[3] = system: normal human mesothelial cells; assay: CyQuant viable cell number assay, normal mesothelial cells; assay type: cell-based; details: 72 h, read-out: IC50 viable cell numbers, normal human mesothelial cells
Method: as §1, §2, §3, §4

[4] = first Stat1:Stat1 value listed (hSIE probe)
[5] = second Stat1:Stat1 value listed (MGFe probe)

| Compound | IC50 (MDA-MB-468 cells; Homo sapiens, MDA-MB-468, 72 h) [µM] | IC50 (MDA-MB-231 cells) [µM] | IC50 (HCC1937 cells; 72 h) [µM] | IC50 (HCC1937 cells; Homo sapiens, HCC1937, 72 h) [µM] | Effect on constitutive Stat3 DNA-binding activity in cells (Stat3) | IC50 [1, 4] [µM] | IC50 [1, 5] [µM] | IC50 (MCF-10A cells) [µM] | IC50 (MCF-10A cells; Homo sapiens, MCF-10A) [µM] | IC50 [2] [µM] | IC50 [3] [µM] | IC50 (MDA-MB-468 cells; 72 h) [µM] |
| --- | --- | --- | --- | --- | --- | --- | --- | --- | --- | --- | --- | --- |
| O=C([C@H]1CCN1S(=O)(=O)c1c(F)c(F)c(F)c(F)c1F)N(Cc1ccc(C2CCCCC2)cn1)c1ccc2c(=O)[nH]cnc2c1 [Compound H172] | 1.5 | 3.3 | 4.8 | 3.6 to 4.3 | dose-dependent inhibition | > 20 | > 20 | 4 | 3.8 to 4 | 20 | 4.9 to 9.2 |  |
| O=C([C@H]1CCN1S(=O)(=O)c1c(F)c(F)c(F)c(F)c1F)N(Cc1ccc(C2CCCCC2)cn1)c1ccc2c(=O)[nH]ncc2c1 [Compound H182] | 1 | 1 | 3 | 3.6 to 4.3 | dose-dependent inhibition | 16.8 | 17.8 | 3.8 | 3.8 to 4 | 19.1 | 4.9 to 9.2 | 1.1 |
